The values that follow come from patent US20200369626A1 (Washington University, priority 2019, published 2020).

Data set [1] is described as follows: biodistribution study of [^11C]2c in EAE and control mice. The settings on record: for tissue uptake: female, SJL, mouse, brain, other: injection. In kind it is in vivo, female SJL mice. On the procedure:
A biodistribution study was conducted in female SJL EAE mice and control mice (at 9 weeks, n=4 for each group) to determine the tissue accumulation of the radiotracer post-injection of the dose.

In a further data set the target is T1, S1PR5 (Homo sapiens, UniProt Q9H228).
T1 construct: purchased
Briefly: competitive [^32P]S1P binding assay on cell membranes, S1PR5.

Another data set concerns the target T2, S1PR1 (Homo sapiens, UniProt P21453).
T2 construct: purchased
Put plainly: competitive [^32P]S1P binding assay on cell membranes, S1PR1. As to the method:
(§1) The test compounds were dissolved in DMSO and diluted into test samples with increasing concentrations with assay buffer. Commercial cell membranes expressing recombinant human S1PR were diluted with assay buffer to make a 20-40 μg/mL of solution. […] The plate was incubated for 60 min at room temperature with shaking and terminated by collecting the membranes onto 96-well glass fiber (GF/B) filtration plates (Millipore, Billerica, Mass.). Each filter was washed with 200 μL of assay buffer for a total of five washes. The filter bound radionuclide was measured by a Beckman LS 3801 scintillation counter using Cherenkov counting. The IC50 values were fitted from GraphPad Prism 6 using one site Nonlinear Regression.

Another data set concerns the target T3, S1PR3 (Homo sapiens, UniProt Q99500).
T3 construct: purchased
Put plainly: competitive [^32P]S1P binding assay on cell membranes, S1PR3. As to the method:
as §1

The target of the next data set is T4, S1PR4 (Homo sapiens, UniProt O95977).
T4 construct: purchased
T4 sequence (O95977 1-384): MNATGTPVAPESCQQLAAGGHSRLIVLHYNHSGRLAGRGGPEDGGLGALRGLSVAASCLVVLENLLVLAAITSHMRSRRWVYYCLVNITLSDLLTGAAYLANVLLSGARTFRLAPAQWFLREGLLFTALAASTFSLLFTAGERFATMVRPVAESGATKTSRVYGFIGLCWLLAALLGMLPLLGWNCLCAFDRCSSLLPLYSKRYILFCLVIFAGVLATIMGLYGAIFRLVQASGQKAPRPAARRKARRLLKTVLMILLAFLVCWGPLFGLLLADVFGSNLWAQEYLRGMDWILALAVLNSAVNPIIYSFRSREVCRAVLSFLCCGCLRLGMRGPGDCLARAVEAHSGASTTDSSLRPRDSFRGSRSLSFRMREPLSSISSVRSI
Put plainly: competitive [^32P]S1P binding assay on cell membranes, S1PR4. As to the method:
as §1

Data set [2] concerns Experimental autoimmune encephalomyelitis (EAE). Put plainly: EAE clinical score in immunized mice, osmotic pump treatment. The format is in vivo, female SJL/J mice. The settings on record: from day 9 postimmunization.
The target of a further data set is T5, S1PR2 (Homo sapiens, UniProt O95136).
T5 construct: purchased
Put plainly: competitive [^32P]S1P binding assay on cell membranes, S1PR2.

Where [3] appears, read: [^32P]S1P competition, read-out: IC50 value, S1PR2 binding.
Where [4] appears, read: [^32P]S1P competition, Table 2, read-out: IC50 S1PR2.

The structures appear in SMILES notation. Like-named read-outs stand apart in the source and are kept apart here. Some results are limits rather than exact numbers.

T1 sequence (Q9H228 whole entry): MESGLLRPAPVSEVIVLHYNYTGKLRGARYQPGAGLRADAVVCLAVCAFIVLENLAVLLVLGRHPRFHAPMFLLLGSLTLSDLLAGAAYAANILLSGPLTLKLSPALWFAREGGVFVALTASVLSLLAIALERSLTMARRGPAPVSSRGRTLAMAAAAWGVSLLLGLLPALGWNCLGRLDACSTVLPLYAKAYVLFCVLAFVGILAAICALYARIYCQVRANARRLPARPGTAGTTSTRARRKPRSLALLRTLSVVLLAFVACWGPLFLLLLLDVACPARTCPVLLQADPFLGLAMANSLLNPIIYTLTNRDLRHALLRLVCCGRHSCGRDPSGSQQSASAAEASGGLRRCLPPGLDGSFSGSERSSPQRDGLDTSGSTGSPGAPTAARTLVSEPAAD
T3 sequence (Q99500 whole entry): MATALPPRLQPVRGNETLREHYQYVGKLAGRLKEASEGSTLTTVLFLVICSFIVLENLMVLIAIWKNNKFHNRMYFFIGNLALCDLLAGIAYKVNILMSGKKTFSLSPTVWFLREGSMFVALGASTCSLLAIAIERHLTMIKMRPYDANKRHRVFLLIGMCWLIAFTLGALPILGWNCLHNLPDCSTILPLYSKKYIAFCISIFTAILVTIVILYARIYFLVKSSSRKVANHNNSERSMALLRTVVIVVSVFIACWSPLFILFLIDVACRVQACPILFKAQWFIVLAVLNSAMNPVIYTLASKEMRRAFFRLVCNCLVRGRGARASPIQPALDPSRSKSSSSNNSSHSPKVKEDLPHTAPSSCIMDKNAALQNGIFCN
T2 sequence (P21453 whole entry): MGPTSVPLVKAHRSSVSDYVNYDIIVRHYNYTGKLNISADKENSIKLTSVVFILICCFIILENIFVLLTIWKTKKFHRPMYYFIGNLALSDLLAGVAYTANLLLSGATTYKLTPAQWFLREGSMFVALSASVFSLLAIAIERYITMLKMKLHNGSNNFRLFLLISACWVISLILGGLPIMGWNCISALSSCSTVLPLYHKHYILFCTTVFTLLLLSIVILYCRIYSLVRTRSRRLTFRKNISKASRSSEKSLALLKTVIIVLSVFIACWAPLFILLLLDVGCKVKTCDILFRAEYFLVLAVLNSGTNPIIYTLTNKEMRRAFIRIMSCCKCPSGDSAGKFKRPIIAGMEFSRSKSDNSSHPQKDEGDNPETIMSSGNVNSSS
T5 sequence (O95136 whole entry): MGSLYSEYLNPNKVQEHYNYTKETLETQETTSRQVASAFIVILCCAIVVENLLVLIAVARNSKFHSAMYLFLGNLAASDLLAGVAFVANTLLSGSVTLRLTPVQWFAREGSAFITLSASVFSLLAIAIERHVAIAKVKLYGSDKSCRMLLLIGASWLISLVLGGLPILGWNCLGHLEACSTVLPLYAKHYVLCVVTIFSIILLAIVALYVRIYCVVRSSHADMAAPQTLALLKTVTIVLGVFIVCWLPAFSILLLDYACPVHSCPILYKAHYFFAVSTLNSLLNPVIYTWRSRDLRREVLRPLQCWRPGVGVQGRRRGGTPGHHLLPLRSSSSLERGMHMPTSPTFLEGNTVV
Experimental for S1PR2: The test compounds were dissolved in DMSO and diluted into test samples with increasing concentrations with assay buffer. Commercial cell membranes expressing recombinant human S1PR were diluted with assay buffer to make a 20-40 μg/mL of solution. […] The plate was incubated for 60 min at room temperature with shaking and terminated by collecting the membranes onto 96-well glass fiber (GF/B) filtration plates (Millipore, Billerica, Mass.). Each filter was washed with 200 μL of assay buffer for a total of five washes. […] The IC50 values were fitted from GraphPad Prism 6 using one site Nonlinear Regression.

As to `COc1ccc(NC(=O)Cn2c(=O)c3ccccc3n(CC(=O)Nc3cc(Cl)c(OC)cc3OC)c2=O)cc1` [[^11C]2c], in data set [1] (EAE mice versus control), the “uptake in brain, blood, heart, lung, and pancreas” value is on record as “increased uptake”. For the same molecule, the tissue uptake in data set [1] (EAE mice) worked out at 0.699 %ID/g; in data set [1] (control mice), 0.452 %ID/g.

As for `Cc1nn(C)c2nc(NNC(=O)Nc3cc(Cl)nc(Cl)c3)cc(C(C)C)c12` [JTE-013, reference compound], the IC50 was above 1 µM at S1PR5 ([^32P]S1P competition, Table 2); above 1 µM at S1PR1 ([^32P]S1P competition, Table 2); above 1 µM on S1PR3 ([^32P]S1P competition, Table 2); above 1 µM at S1PR4 ([^32P]S1P competition, Table 2).

In the case of `COc1ccc(NC(=O)Cn2c(=O)c3ccccc3n(CC(=O)Nc3cc(Cl)c(OC)cc3OC)c2=O)cc1` [Compound 2c], the “EAE disease course (clinical score)” value in data set [2] (1 mg/kg, p<0.0002) is “significant improvement of EAE disease course”; in data set [2] (5 mg/kg, p<0.0001) it was “significant improvement of EAE disease course”. Further, at S1PR2 (setting [3]), the half-maximal inhibitory concentration (IC50) amounted to 0.0057 ± 0.0005 µM.

Take `CCC(CC)CC1(O)CCN(C(=O)Nc2cc(Oc3ccc(F)cc3)cc(Oc3ccc(C(=O)NCCF)cc3)c2)CC1` [Compound 28d, 4-(2-Ethylbutyl)-N-(3-(4-((2-fluoroethyl)carbamoyl)phenoxy)-5-(4-fluorophenoxy)phenyl)-4-hydroxypiperidine-1-carboxamide]: the melting point was in the range of 79 to 82 °C. The molecule also yielded an IC50 at S1PR5 above 1 µM. Also, the IC50 on S1PR1 was above 1 µM. Further, the IC50 on S1PR3 is above 1 µM. The IC50 at S1PR2 (setting [4]) was determined as 0.0667 ± 0.0078 µM. On S1PR4, this molecule gave an IC50 above 1 µM.

Molecule `CCC(CC)CC1(O)CCN(C(=O)Nc2cc(Oc3ccc(F)cc3)cc(Oc3ccc4c(c3)CCN(C)C4=O)c2)CC1` [Compound 28b, 4-(2-Ethylbutyl)-N-(3-(4-fluorophenoxy)-5-((2-methyl-1-oxo-1,2,3,4-tetrahydroisoquinolin-6-yl)oxy)phenyl)-4-hydroxypiperidine-1-carboxamide] displayed a melting point of 80 to 82 °C. Also, the IC50 at S1PR5 is above 1 µM. At S1PR1, this molecule displayed an IC50 above 1 µM. The same molecule displayed an IC50 on S1PR3 above 1 µM. Besides, on S1PR4, the concentration for half-maximal inhibition (IC50) was above 1 µM.

For the molecule `CC(C)CC1(O)CCN(C(=O)Nc2cc(Oc3ccc(F)cc3)cc(Sc3ccc(S(C)(=O)=O)cc3)c2)CC1` [Compound 28g, N-(3-(4-Fluorophenoxy)-5-((4-(methylsulfonyl)phenyl)-thio)phenyl)-4-hydroxy-4-isobutylpiperidine-1-carboxamide], the melting point was in the range of 79 to 81 °C. At S1PR5, this molecule displayed a half-inhibitory concentration (IC50) above 1 µM. In addition, on S1PR1, the IC50 was above 1 µM. The IC50 at S1PR3 is above 1 µM. In addition, the IC50 on S1PR2 (setting [4]) was determined as 0.0385 ± 0.0063 µM. The same molecule displayed an IC50 on S1PR4 above 1 µM.

Take `CCC(CC)CC1(O)CCN(C(=O)Nc2cc(Oc3ccc(F)cc3)cc(Sc3ccc(S(C)(=O)=O)cc3)c2)CC1` [Compound 28e, 4-(2-Ethylbutyl)-N-(3-(4-fluorophenoxy)-5-((4-(methylsulfonyl)phenyl)thio)phenyl)-4-hydroxypiperidine-1-carboxamide]: the melting point fell in the range of 78 to 80 °C. Also, at S1PR5, the IC50 is above 1 µM. For the same molecule, the IC50 on S1PR1 is above 1 µM. The IC50 at S1PR3 was above 1 µM. Besides, the IC50 at S1PR2 (setting [3]) is 0.0146 µM. In addition, at S1PR4, the IC50 was above 1 µM.

`CCC(CC)CC1(O)CCN(C(=O)Nc2cc(Oc3ccc(F)cc3)cc(Oc3ccc4c(c3)CCNC4=O)c2)CC1` [Compound 28c, 4-(2-Ethylbutyl)-N-(3-(4-fluorophenoxy)-5-((1-oxo-1,2,3,4-tetrahydroisoquinolin-6-yl)oxy)phenyl)-4-hydroxypiperidine-1-carboxamide]: the melting point lay in the range of 81 to 83 °C. The IC50 on S1PR5 is above 1 µM. The IC50 on S1PR1 is above 1 µM. Besides, the IC50 on S1PR3 is above 1 µM. The molecule further displayed an IC50 at S1PR4 above 1 µM.

With `COc1cc(OC)c(NC(=O)Cn2c(=O)n(CC(=O)Nc3ccccc3OC)c(=O)c3ccccc32)cc1Cl` [TZ59-134, N-(5-Chloro-2,4-dimethoxyphenyl)-2-(3-(2-((2-methoxyphenyl)amino)-2-oxoethyl)-2,4-dioxo-3,4-dihydroquinazolin-1(2H)-yl)acetamide], the IC50 on S1PR5 (Table 5) was above 1 µM; on S1PR1 (Table 5), above 1 µM; on S1PR3 (Table 5), above 1 µM; at S1PR2 (Table 5, read-out: IC50 S1PR2) it was 0.0063 ± 0.0009 µM; at S1PR4 (Table 5) it was above 1 µM.
